Reference: patent publication US20210261621A1, “Preparation of Dilipid Polymixins and Use Thereof as Antimicrobial Adjuvants” (priority 2018, published 2021)
≈ marks a conversion by molar mass, not a printed value. Like-named read-outs stand apart in the source and are kept apart here. Positions of bridges follow the written chain, without caps; N, C: chain ends. Non-standard residues stand in square brackets, D forms with d. Residues, ends and D or L forms follow the SMILES beside them. Dab = NCC[C@H](N)C(=O)O

Key:
[1] = tested on: P. aeruginosa PAO1; type: cell-based, Pseudomonas aeruginosa; conditions: P. aeruginosa PAO1 (wild type)
Description: (§1) Bacterial strains were either obtained from the American Type Culture Collection (ATCC), Canadian National Intensive Care Unit (CAN-ICU) surveillance study or the Canadian Ward Surveillance (CANWARD) study. Strains from both CAN-ICU and CANWARD are isolates recovered from patients diagnosed with a presumed infectious disease that were admitted in a participating medical center across Canada. Efflux-deficient strain PAO200 (lacking MexAB-OprM efflux system) and PA0750 (lacking MexAB-OprM, MexCD-OprJ, MexEF-OprN, MexJK and MexXY efflux systems, and the outer membrane protein OpmH) were kindly gifted by Dr. Ayush Kumar (University of Manitoba).
(§2) The in vitro antibacterial activity of the compounds studied were assessed by broth microdilution susceptibility testing following CLSI guidelines. Bacterial cultures were grown overnight prior to the assay. The overnight grown cultures were diluted in saline to 0.5 McFarland turbidity, followed by 1:50 dilution in Mueller-Hinton broth (MHB) for inoculation to a final concentration of approximately 5×10^5 colony forming units/mL. Testing was performed on 96-well plates where the tested compounds were 2-fold serially diluted in MHB and incubated with equal volumes of bacterial inoculum at 37° C. for 18 h. […] Wells containing MHB with or without bacterial cells were used as positive or negative control, respectively.

[2] = tested on: P. aeruginosa PAO200
Description: (§3) To our curiosity, we explored whether efflux can affect the activity of polymyxins. It is widely accepted that polymyxins disrupt Gram-negative bacterial membranes that result to intracellular component leakage and bacterial cell death. However, for this to occur requires the agent to reach the periplasmic space to interact and disrupt the inner membrane. Active efflux may potentially expel polymyxins out of the periplasm, effectively reducing its periplasmic and intracellular concentrations. To study the effect of efflux on polymyxins in Gram-negative pathogens, we used P. aeruginosa as they inherently overexpress efflux systems such as MexAB-OprM, MexCD-OprJ and MexXY-OprM. Moreover, antibiotic substrates for these efflux systems are mostly characterized. We evaluated and compared the activity of the dilipid polymyxins, colistin and PMBN against wild-type PAO1 and two efflux-deficient P. aeruginosa isogenic mutants (Table 5). The strain PAO200 lacks the MexAB-OprM efflux system while strain PAO750 lacks five clinically-relevant pumps (MexAB-OprM, MexCD-OprJ, MexEF-OprN, MexJK and MexXY) and outer membrane protein OpmH.
as §1, §2

[3] = tested on: P. aeruginosa PAO750; conditions: P. aeruginosa PAO750, efflux-deficient strain that lacks five pumps and OpmH
Description: as §3, §1, §2

[4] = tested on: P. aeruginosa PAO1; set-up: MICDrug / MICDrug in combo / MIC of adjuvant in combo: unit not given beside the values
Description: The potential of the dilipid polymyxins to serve as an adjuvant in combination with other antibiotics was evaluated against P. aeruginosa PAO1 strain (Tables 4 and 7-12). […] Checkerboard assays were performed with the dilipid polymyxins in combination with twenty-one clinically-used antibiotics. The panel included representatives from the β-lactam, carbapenem, tetracycline, aminoglycoside and fluoroquinolone antibiotic families. Other agents that are used to treat Gram-negative bacterial infection such as fosfomycin, trimethoprim and chloramphenicol were also included. […] Fractional inhibitory concentration (FIC) index was calculated for each combination to measure potential synergism between the two agents. FIC was obtained by dividing the MIC of antibiotic/adjuvant in combination by the MIC of antibiotic/adjuvant alone, while FIC index was calculated by the summation of FIC indices for the antibiotic and adjuvant. An FIC index of ≤0.5, 0.5<x≤4, or >4 denotes for synergistic, additive or antagonistic interaction, respectively. Initially, we assessed the adjuvant properties of PMBN against the panel of 21 antibiotics.
The assay was performed on 96-well plates as previously described. Briefly, the antibiotic at study was 2-fold serially diluted along the x-axis, while the adjuvant was 2-fold serially diluted along the y-axis to create a matrix in which each well consists of a combination of both at different concentrations. Overnight grown bacterial cultures were diluted in saline to 0.5 McFarland turbidity, followed by 1:50 dilution in MHB and inoculation on each well to a final concentration of approximately 5×10^5 colony forming units/mL. Wells containing only MHB with or without bacterial cells were used as positive or negative control, respectively. […] The fractional inhibitory concentration (FIC) of the antibiotic was calculated via dividing the MIC of antibiotic in the presence of adjuvant by the MIC of antibiotic alone. Similarly, the FIC of adjuvant was calculated via dividing the MIC of adjuvant in the presence of antibiotic by the MIC of adjuvant alone. The FIC index was obtained by the summation of both FIC values. The FIC index was then interpreted as synergistic, additive, or antagonistic for values of ≤0.5, 0.5<x<4, or ≥4, respectively.

[5] = tested on: pig erythrocytes; conditions: red cells of pig, 1 h, 512
[6] = healthy volunteers; single dose up to 800 mg or multiple dose up to 600 mg every 8 hours for 14 consecutive days; cited from earlier work

CC(C)C[C@@H]1NC(=O)[C@@H](Cc2ccccc2)NC(=O)[C@H](CCN)NC(=O)[C@@H](NC(=O)[C@H](CCN)NC(=O)[C@@H](N)[C@@H](C)O)CCNC(=O)[C@H]([C@@H](C)O)NC(=O)[C@H](CCN)NC(=O)[C@H](CCN)NC1=O [PMBN, polymyxin B nonapeptide, reference compound] (H-T[Dab][Dab][Dab][dF]L[Dab][Dab]T; lactam 3-C (inferred))
MIC [1]: 128 µg/mL (≈ 133 µM)
MIC ([2]; P. aeruginosa PAO200, efflux-deficient strain that lacks the MexAB-OprM pump): 2 µg/mL (≈ 2.08 µM)
fold difference in MIC against wild-type PAO1 and efflux-deficient PAO200 ([2]; PAO1 versus PAO200 (lacks MexAB-OprM)): 64 fold
MIC [3]: 4 µg/mL (≈ 4.15 µM)
MIC of adjuvant alone (MIC1, MIC2, MIC3, MIC4, MIC5, MICPMBN) ([4]; adjuvant alone, one value per checkerboard, in µg/mL): 128
Interpretation ([4]; combination with Aztreonam): Synergy (An FIC index of ≤0.5, 0.5<x≤4, or >4 denotes for synergistic, additive or antagonistic interaction, respectively)
Interpretation ([4]; combination with Ceftazidime): Synergy (An FIC index of ≤0.5, 0.5<x≤4, or >4 denotes for synergistic, additive or antagonistic interaction, respectively)
Interpretation ([4]; combination with Chloramphenicol): Synergy (An FIC index of ≤0.5, 0.5<x≤4, or >4 denotes for synergistic, additive or antagonistic interaction, respectively)
Interpretation ([4]; combination with Ciprofloxacin): Synergy (An FIC index of ≤0.5, 0.5<x≤4, or >4 denotes for synergistic, additive or antagonistic interaction, respectively)
Interpretation ([4]; combination with Clindamycin): Synergy (An FIC index of ≤0.5, 0.5<x≤4, or >4 denotes for synergistic, additive or antagonistic interaction, respectively)
Interpretation ([4]; combination with Doripenem): Synergy (An FIC index of ≤0.5, 0.5<x≤4, or >4 denotes for synergistic, additive or antagonistic interaction, respectively)
Interpretation ([4]; combination with Doxycycline): Synergy (An FIC index of ≤0.5, 0.5<x≤4, or >4 denotes for synergistic, additive or antagonistic interaction, respectively)
Interpretation ([4]; combination with Fosfomycin): Synergy (An FIC index of ≤0.5, 0.5<x≤4, or >4 denotes for synergistic, additive or antagonistic interaction, respectively)
Interpretation ([4]; combination with Gentamicin): Additive (An FIC index of ≤0.5, 0.5<x≤4, or >4 denotes for synergistic, additive or antagonistic interaction, respectively)
Interpretation ([4]; combination with Linezolid): Synergy (An FIC index of ≤0.5, 0.5<x≤4, or >4 denotes for synergistic, additive or antagonistic interaction, respectively)
Interpretation ([4]; combination with Meropenem): Synergy (An FIC index of ≤0.5, 0.5<x≤4, or >4 denotes for synergistic, additive or antagonistic interaction, respectively)
Interpretation ([4]; combination with Minocycline): Synergy (An FIC index of ≤0.5, 0.5<x≤4, or >4 denotes for synergistic, additive or antagonistic interaction, respectively)
Interpretation ([4]; combination with Moxifloxacin): Synergy (An FIC index of ≤0.5, 0.5<x≤4, or >4 denotes for synergistic, additive or antagonistic interaction, respectively)
Interpretation ([4]; combination with Novobiocin): Synergy (An FIC index of ≤0.5, 0.5<x≤4, or >4 denotes for synergistic, additive or antagonistic interaction, respectively)
Interpretation ([4]; combination with Piperacillin): Synergy (An FIC index of ≤0.5, 0.5<x≤4, or >4 denotes for synergistic, additive or antagonistic interaction, respectively)
Interpretation ([4]; combination with Pleuromutilin): Synergy (An FIC index of ≤0.5, 0.5<x≤4, or >4 denotes for synergistic, additive or antagonistic interaction, respectively)
Interpretation ([4]; combination with Rifampicin): Synergy (An FIC index of ≤0.5, 0.5<x≤4, or >4 denotes for synergistic, additive or antagonistic interaction, respectively)
Interpretation ([4]; combination with Streptomycin): Additive (An FIC index of ≤0.5, 0.5<x≤4, or >4 denotes for synergistic, additive or antagonistic interaction, respectively)
Interpretation ([4]; combination with Tobramycin): Additive (An FIC index of ≤0.5, 0.5<x≤4, or >4 denotes for synergistic, additive or antagonistic interaction, respectively)
Interpretation ([4]; combination with Trimethoprim): Synergy (An FIC index of ≤0.5, 0.5<x≤4, or >4 denotes for synergistic, additive or antagonistic interaction, respectively)
Interpretation ([4]; combination with Vancomycin): Synergy (An FIC index of ≤0.5, 0.5<x≤4, or >4 denotes for synergistic, additive or antagonistic interaction, respectively)
MIC of adjuvant in combo ([4]; in combination with Aztreonam): (4)
MIC of adjuvant in combo ([4]; in combination with Ceftazidime): (8)
MIC of adjuvant in combo ([4]; in combination with Chloramphenicol): (1)
MIC of adjuvant in combo ([4]; in combination with Ciprofloxacin): (32)
MIC of adjuvant in combo ([4]; in combination with Clindamycin): (0.5)
MIC of adjuvant in combo ([4]; in combination with Doripenem): (8)
MIC of adjuvant in combo ([4]; in combination with Doxycycline): (4)
MIC of adjuvant in combo ([4]; in combination with Fosfomycin): (32)
MIC of adjuvant in combo ([4]; in combination with Gentamicin): (64)
MIC of adjuvant in combo ([4]; in combination with Linezolid): (4)
MIC of adjuvant in combo ([4]; in combination with Meropenem): (16)
MIC of adjuvant in combo ([4]; in combination with Minocycline): (8)
MIC of adjuvant in combo ([4]; in combination with Moxifloxacin): (32)
MIC of adjuvant in combo ([4]; in combination with Novobiocin): (4)
MIC of adjuvant in combo ([4]; in combination with Piperacillin): (8)
MIC of adjuvant in combo ([4]; in combination with Pleuromutilin): (0.5)
MIC of adjuvant in combo ([4]; in combination with Rifampicin): (0.5)
MIC of adjuvant in combo ([4]; in combination with Streptomycin): (0.5)
MIC of adjuvant in combo ([4]; in combination with Tobramycin): (0.5)
MIC of adjuvant in combo ([4]; in combination with Trimethoprim): (4)
MIC of adjuvant in combo ([4]; in combination with Vancomycin): (1)
adjuvant activity (potentiation of the panel of 21 antibiotics) ([4]; result in words): potentiated all antibiotics tested except for those belonging to the aminoglycoside family
% Hemolysis at 512 μg/mL of polymyxin [5]: 1.1 ± 0.1%

CC(=O)N[C@H](C(=O)N[C@H](CO)C(=O)N[C@H]1CCNC(=O)[C@H]([C@@H](C)O)NC(=O)[C@H](CCN)NC(=O)[C@H](CCN)NC(=O)[C@H](CC(C)C)NC(=O)[C@@H](Cc2ccccc2)NC(=O)[C@H](CCN)NC1=O)[C@@H](C)O [SPR741] (Ac-T[dS][Dab][Dab][dF]L[Dab][Dab]T; lactam 3-C)
tolerability [6]: well-tolerated
